This note sets out measurements from ChEMBL document CHEMBL4308884, “Development and characterization of a CNS-penetrant benzhydryl hydroxamic acid class IIa histone deacetylase inhibitor” (Bioorg Med Chem Lett, 2019).

As a reminder, the Papp is the rate of passage across a membrane or cell layer, normalised by area and donor concentration.

Data set [1] is described as follows: Kinetic aqueous solubility of the compound. Format: physicochemical. The settings on record: buffer; read-out: Kinetic_solubility.
Data set [2] can be described thus: Apparent passive permeability in MDCK cells at 10 uM after 1 hr by LC-MS/MS analysis. Format: ADME, cell-based, Canis lupus familiaris. Conditions: dog; for Papp: mdck, 1 h, 10 µM.

Converted amounts (≈) assume the structure as drawn.

With `O=C(NO)C(c1ccc(-c2nccc(C(F)(F)F)n2)cc1)c1ccccc1F` (stereo unspecified), the solubility kinetic in data set [1] was found to be 141 µM (≈ 55.2 µg/mL). Further, the Papp result in data set [2] was “Nd(Toxic)”.

Consider `O=C(NO)C(c1ccc(-c2cnccn2)cc1)c1ccccc1F` (stereo unspecified), for which the solubility kinetic in data set [1] is 164 µM (≈ 53 µg/mL). Besides, the Papp at 1 h, 10 µM in data set [2] (MDCK) stood at 46.4 ×10⁻⁶ cm/s.

On to `Cc1cnc(-c2ccc(C(C(=O)NO)c3ccccc3F)cc2)nc1` (stereo unspecified), for which the solubility kinetic in data set [1] came out at 52 µM (≈ 17.5 µg/mL). In addition, the Papp result in data set [2] is on record as “Nd(Toxic)”.
